Data taken from ChEMBL document CHEMBL1124942, “[D-Pen2,D-Pen5]enkephalin analogues with increased affinity and selectivity for delta opioid receptors” (J Med Chem, 1990).

Columns and labels:
[1] = species on record: Mus musculus; experiment: Inhibitory potency was evaluated using electrically induced smooth muscle contractions of mouse vas deferens (MVD).; type: functional, organism-based
[2] = species on record: Cavia porcellus; experiment: Inhibitory potency was evaluated using strips of guinea pig ileum (GPI) longitudinal muscle-myenteric plexus.; type: functional, organism-based

SMILES | IC50 [1] | IC50 [2]
CC1(C)SSC(C)(C)[C@@H](NC(=O)[C@@H](N)Cc2ccc(O)cc2)C(=O)NCC(=O)N[C@@H](Cc2ccc(Br)cc2)C(=O)N[C@H]1C(=O)O | 1.5 nM | 13400 nM
CC1(C)SSC(C)(C)[C@@H](NC(=O)[C@@H](N)Cc2ccc(O)cc2)C(=O)NCC(=O)N[C@@H](Cc2ccc(I)cc2)C(=O)N[C@H]1C(=O)O | 2.65 nM | 46100 nM
CC1(C)SSC(C)(C)[C@@H](NC(=O)[C@@H](N)Cc2ccc(O)cc2)C(=O)NCC(=O)N[C@@H](Cc2ccc(Cl)cc2)C(=O)N[C@H]1C(=O)O | 0.89 nM | 4830 nM
CC1(C)SSC(C)(C)[C@@H](NC(=O)[C@@H](N)Cc2ccc(O)cc2)C(=O)NCC(=O)N[C@@H](Cc2ccc(F)cc2)C(=O)N[C@H]1C(=O)O | 0.84 nM | 5030 nM
